Among the data in patent US11780845B2 (Relay Therapeutics, Inc., priority 2019, dated 2023) are IC50 values, retold here.

One experiment addresses FGFR2 (Homo sapiens (Human), UniProt P21802). Briefly: Biochemical FGFR2 Caliper assay.
The subject of the next experiment is SNU-16. Nature of the experiment: Cell SNU-16 assay. Type of experiment: cell-based. The note with it: Homo sapiens, SNU-16, SNU-16 cells.

Molecules are shown by their SMILES. pIC50: −log10 of the molar value.

Chain of FGFR2 (P21802 22-821): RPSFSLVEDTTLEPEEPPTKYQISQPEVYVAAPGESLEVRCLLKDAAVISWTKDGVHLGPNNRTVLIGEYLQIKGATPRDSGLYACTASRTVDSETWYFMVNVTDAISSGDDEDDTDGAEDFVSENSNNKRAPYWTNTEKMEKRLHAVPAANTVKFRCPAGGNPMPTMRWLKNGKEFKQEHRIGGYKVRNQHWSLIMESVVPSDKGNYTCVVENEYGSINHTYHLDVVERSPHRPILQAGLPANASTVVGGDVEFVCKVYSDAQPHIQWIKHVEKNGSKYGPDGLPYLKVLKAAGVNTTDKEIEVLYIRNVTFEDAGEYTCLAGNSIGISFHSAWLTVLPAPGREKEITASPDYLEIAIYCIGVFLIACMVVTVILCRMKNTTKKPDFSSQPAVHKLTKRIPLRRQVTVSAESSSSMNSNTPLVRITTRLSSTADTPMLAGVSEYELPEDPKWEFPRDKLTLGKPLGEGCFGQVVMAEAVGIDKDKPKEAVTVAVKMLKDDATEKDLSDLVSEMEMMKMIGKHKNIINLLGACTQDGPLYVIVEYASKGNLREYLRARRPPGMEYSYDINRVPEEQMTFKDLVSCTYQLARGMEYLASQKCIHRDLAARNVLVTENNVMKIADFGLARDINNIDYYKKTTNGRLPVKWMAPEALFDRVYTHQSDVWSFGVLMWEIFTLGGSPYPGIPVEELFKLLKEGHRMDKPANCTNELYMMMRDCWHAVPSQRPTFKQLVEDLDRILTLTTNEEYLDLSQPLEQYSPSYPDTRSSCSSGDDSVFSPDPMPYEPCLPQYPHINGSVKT

The term pIC50 denotes the IC50 on a negative log10 scale, so that one unit is a factor of ten. Read a high pIC50 as a small IC50. For the molecule `Cn1c(-c2ccc(NC(=O)CCl)cc2)c(C2=CC[C@@H](C(=O)N3CCCC3)CC2)c2c(N)ncnc21` (single isomer, unassigned) [Example 906], the pIC50 on FGFR2 was over 7.00; with SNU-16, at least 7.00.

Take `Cc1ccnc(Oc2ccc(-c3c(C4=CCN(C(=O)[C@H]5CO5)C4)n(C)c4ncnc(N)c34)cc2)n1` (single isomer, unassigned) [Example 908]: the pIC50 against FGFR2 was 6.60 to 7.00; in the experiment on SNU-16, at least 7.00.

Take `Cc1ccnc(Oc2ccc(-c3c(C4=CCN(C(=O)[C@@H]5CO5)C4)n(C)c4ncnc(N)c34)cc2)n1` (single isomer, unassigned) [Example 909]: the pIC50 against FGFR2 and with SNU-16 was 4.00 to 6.00 in each case.

As to `C=C(C)C(=O)Nc1ccc(-c2c(C3=CC[C@H](C(=O)N4CCCC45COC5)CC3)c3c(N)ncnc3n2C)cc1` (single isomer, unassigned) [Example 913], the values for the pIC50 on FGFR2 and in the experiment with SNU-16 were over 7.00 and at least 7.00, respectively.

Consider `C=C(C)C(=O)Nc1ccc(-c2c(C3=CC[C@@H](C(=O)N4CCCC45COC5)CC3)c3c(N)ncnc3n2C)cc1` (single isomer, unassigned) [Example 914], for which the pIC50 was over 7.00 against FGFR2 and at least 7.00 in the experiment on SNU-16.

As for `Cc1ccnc(Oc2ccc(-c3c(-c4ccc(OC[C@H]5CO5)cc4)n(C)c4ncnc(N)c34)cc2)n1` (single isomer, unassigned) [Example 917], the pIC50 on FGFR2 and in the experiment on SNU-16 was 6.60 to 7.00 each time.

Take `Cc1ccnc(Oc2ccc(-c3c(-c4ccc(OC[C@@H]5CO5)cc4)n(C)c4ncnc(N)c34)cc2)n1` (single isomer, unassigned) [Example 918]: the pIC50 at FGFR2 is 6.00 to 6.60; in the experiment on SNU-16 it was 4.00 to 6.00.

As for `C=C(C)C(=O)Nc1ccc(-c2c(-c3ccc4c(c3)OC[C@@H]4c3cccc(C)n3)c3c(N)ncnc3n2C)cc1` (single isomer, unassigned) [Example 919], the pIC50 is 6.60 to 7.00 at FGFR2 and 4.00 to 6.00 in the experiment on SNU-16.

`C=C(C)C(=O)Nc1ccc(-c2c(-c3ccc4c(c3)OC[C@H]4c3cccc(C)n3)c3c(N)ncnc3n2C)cc1` (single isomer, unassigned) [Example 920]: the pIC50 is over 7.00 at FGFR2 and at least 7.00 in the experiment with SNU-16.

In the case of `C=C(C)C(=O)Nc1ccc(-c2c(N3CC[C@@H](C(=O)N4CCCC4)CC3=O)c3c(N)ncnc3n2C)cc1` (single isomer, unassigned) [Example 925], the pIC50 against FGFR2 was over 7.00; with SNU-16, at least 7.00.

`C=C(C)C(=O)Nc1ccc(-c2c(N3CC[C@H](C(=O)N4CCCC4)CC3=O)c3c(N)ncnc3n2C)cc1` (single isomer, unassigned) [Example 926]: the negative logarithm of the IC50 (pIC50) against FGFR2 and in the experiment on SNU-16 was 4.00 to 6.00 each time.

Take `C=CC(=O)N[C@@H]1Cc2ccc(-c3c(-c4ccc(Oc5nccc(C)n5)cc4)c4c(N)ncnc4n3C)cc2C1` (single isomer, unassigned) [Example 927]: the pIC50 against FGFR2 and with SNU-16 was 4.00 to 6.00 each time.

Regarding `C=CC(=O)N[C@H]1Cc2ccc(-c3c(-c4ccc(Oc5nccc(C)n5)cc4)c4c(N)ncnc4n3C)cc2C1` (single isomer, unassigned) [Example 928], the pIC50 at FGFR2 and in the experiment with SNU-16 was 6.00 to 6.60 each time.

On to `C=CC(=O)N[C@H]1CCc2cc(-c3c(-c4ccc(Oc5nccc(C)n5)cc4)c4c(N)ncnc4n3C)ccc21` (single isomer, unassigned) [Example 929], for which the negative logarithm of the IC50 (pIC50) is 6.00 to 6.60 on FGFR2 and 6.60 to 7.00 with SNU-16.

With `C=C(C)C(=O)N1CC=C(c2c(-c3ccc(Oc4cccc(C)n4)cc3)c3c(N)ncnc3n2C)[C@H]1C` (single isomer, unassigned) [Example 930], the pIC50 on FGFR2 was 6.00 to 6.60; with SNU-16, 6.60 to 7.00.

For `C=C(C)C(=O)N1CC=C(c2c(-c3ccc(Oc4cccc(C)n4)cc3)c3c(N)ncnc3n2C)[C@@H]1C` (single isomer, unassigned) [Example 931], the pIC50 against FGFR2 was 6.00 to 6.60; in the experiment with SNU-16, 4.00 to 6.00.

Take `C=CC(=O)N1CC=C(c2c(-c3ccc(Oc4cccc(C)n4)cc3)c3c(N)ncnc3n2C)[C@H]1C` (single isomer, unassigned) [Example 932]: the negative-log IC50 (pIC50) at FGFR2 was 6.60 to 7.00; in the experiment on SNU-16, 6.00 to 6.60.

In the case of `C=CC(=O)N1CC=C(c2c(-c3ccc(Oc4cccc(C)n4)cc3)c3c(N)ncnc3n2C)[C@@H]1C` (single isomer, unassigned) [Example 933], the values for the pIC50 on FGFR2 and in the experiment on SNU-16 were over 7.00 and at least 7.00, respectively.

On to `C=C(C)C(=O)Nc1ccc(-c2c(C3=CC[C@]4(CC3)CCN(C)C4=O)c3c(N)ncnc3n2C)cc1` (single isomer, unassigned) [Example 934], for which the pIC50 against FGFR2 is over 7.00; in the experiment with SNU-16, at least 7.00.

`C=C(C)C(=O)Nc1ccc(-c2c(C3=CC[C@@]4(CC3)CCN(C)C4=O)c3c(N)ncnc3n2C)cc1` (single isomer, unassigned) [Example 935]: the pIC50 against FGFR2 and with SNU-16 was 4.00 to 6.00 each time.

Regarding `C=C(C)C(=O)Nc1ccc(-c2c(C3=CC[C@@H](C(=O)N4CCCC4)C[C@H]3C)c3c(N)ncnc3n2C)cc1` (single isomer, unassigned) [Example 936], the results for the pIC50 at FGFR2 and in the experiment on SNU-16 were 4.00 to 6.00 and 6.00 to 6.60, respectively.

On to `C=C(C)C(=O)Nc1ccc(-c2c(C3=CC[C@H](C(=O)N4CCCC4)C[C@H]3C)c3c(N)ncnc3n2C)cc1` (single isomer, unassigned) [Example 938], for which the negative logarithm of the IC50 (pIC50) at FGFR2 and in the experiment on SNU-16 was 4.00 to 6.00 in each case.

For `C=C(C)C(=O)Nc1ccc(-c2c(C3=CC[C@H](C(=O)N4CCCC4)C[C@@H]3C)c3c(N)ncnc3n2C)cc1` (single isomer, unassigned) [Example 939], the pIC50 against FGFR2 and with SNU-16 was 4.00 to 6.00 each time.

As for `C=CC(=O)N1CC[C@@H](c2c(-c3ccc(Oc4cccc(C)n4)cc3)c3c(N)ncnc3n2C)[C@H]1C` (single isomer, unassigned) [Example 940], the pIC50 at FGFR2 and in the experiment on SNU-16 was 4.00 to 6.00 each time.

For `C=CC(=O)N1CC[C@H](c2c(-c3ccc(Oc4cccc(C)n4)cc3)c3c(N)ncnc3n2C)[C@H]1C` (single isomer, unassigned) [Example 941], the negative-log IC50 (pIC50) against FGFR2 is 6.00 to 6.60; with SNU-16 it was 6.60 to 7.00.

In the case of `C=CC(=O)N[C@@H]1CCc2cc(-c3c(-c4ccc(Oc5nccc(C)n5)cc4)c4c(N)ncnc4n3C)ccc21` (single isomer, unassigned) [Example 942], the pIC50 against FGFR2 and in the experiment on SNU-16 was 6.00 to 6.60 each time.

Take `C=CC(=O)N[C@@H]1CCc2ccc(-c3c(-c4ccc(Oc5nccc(C)n5)cc4)c4c(N)ncnc4n3C)cc2C1` (single isomer, unassigned) [Example 944]: the pIC50 against FGFR2 and in the experiment on SNU-16 was 4.00 to 6.00 throughout.

On to `C=CC(=O)N[C@H]1CCc2ccc(-c3c(-c4ccc(Oc5nccc(C)n5)cc4)c4c(N)ncnc4n3C)cc2C1` (single isomer, unassigned) [Example 945], for which the pIC50 on FGFR2 and in the experiment on SNU-16 was 4.00 to 6.00 each time.

With `C#C[C@@H]1CCCN1C(=O)[C@H]1CC=C(c2c(-c3ccc(NC(=O)C(=C)C)cc3)n(C)c3ncnc(N)c23)CC1` (single isomer, unassigned) [Example 949], the pIC50 was 6.60 to 7.00 on FGFR2 and 4.00 to 6.00 in the experiment on SNU-16.

As for `C#C[C@H]1CCCN1C(=O)[C@H]1CC=C(c2c(-c3ccc(NC(=O)C(=C)C)cc3)n(C)c3ncnc(N)c23)CC1` (single isomer, unassigned) [Example 950], the pIC50 against FGFR2 and in the experiment on SNU-16 was 4.00 to 6.00 throughout.
